Data published in PMC12124671, “Drug repurposing reveals posaconazole as a CYP11A1 inhibitor enhancing anti-tumor immunity” (iScience, 2025).

Experiments:
CYP11A1 [1] = target: T1, CYP11A1 (Mus musculus, UniProt Q9QZ82); experiment: pregnenolone ELISA in murine Th2 cells (endogenous Cyp11a1), reference inhibitor, […] h dose response; assay type: cell-based
T1 sequence (Q9QZ82 37-526): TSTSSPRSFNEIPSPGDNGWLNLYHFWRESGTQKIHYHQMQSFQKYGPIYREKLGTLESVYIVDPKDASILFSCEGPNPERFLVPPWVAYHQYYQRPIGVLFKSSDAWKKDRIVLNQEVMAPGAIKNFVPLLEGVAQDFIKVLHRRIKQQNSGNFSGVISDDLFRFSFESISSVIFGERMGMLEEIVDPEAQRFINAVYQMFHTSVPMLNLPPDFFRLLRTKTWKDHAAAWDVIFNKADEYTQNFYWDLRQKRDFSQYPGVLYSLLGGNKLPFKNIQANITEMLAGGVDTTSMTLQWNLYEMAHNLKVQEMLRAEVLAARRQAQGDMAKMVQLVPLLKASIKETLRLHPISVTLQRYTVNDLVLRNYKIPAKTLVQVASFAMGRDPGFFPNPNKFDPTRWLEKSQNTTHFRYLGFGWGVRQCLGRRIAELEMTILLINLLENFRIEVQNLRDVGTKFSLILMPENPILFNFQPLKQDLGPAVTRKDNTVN

CYP11A1 [2] = target: T1, CYP11A1; experiment: pregnenolone ELISA in murine Th2 cells (endogenous Cyp11a1), dose response; assay type: cell-based

SMILES	IC50 (CYP11A1 [1]) [nM]	IC50 (CYP11A1 [2]) [nM]
CCC1(c2ccc(N)cc2)CCC(=O)NC1=O (centres unmarked) [aminoglutethimide]	1080	
CC[C@@H]([C@H](C)O)n1ncn(-c2ccc(N3CCN(c4ccc(OC[C@@H]5CO[C@@](Cn6cncn6)(c6ccc(F)cc6F)C5)cc4)CC3)cc2)c1=O [posaconazole]		218
